Measured values from US7390892B2, “Nucleic acids encoding novel cyclic GMP dependent protein kinases from Elmeria maxima” (Merial Limited, priority 2001, dated 2008).
Values after ≈ are worked out from the molar mass of the structure shown. Values joined by “and” are separate entries in the source; they are usually repeats but may differ in a detail not shown here. Equal values may be shown once.

Legend:
E. maxima = experiment: Efficacy against E. maxima in infected chickens (oocyst counts); type: in vivo; conditions: 125 ppm in the feed, terminated on day 8
Description: Several studies have been conducted to evaluate the efficacy of […] against E. maxima in infected chickens. For efficacy studies against E. maxima alone, L-167645 was administered in the feed at doses from 25 to 150 ppm starting on day one. Birds were infected with 3.5×10^3 E. maxima sporalated oocysts on day 2 and medicated feed was continuously available at the respective doses for the duration of the study. The experiment was terminated on day 8, intestines were removed and homogenized and compound efficacy was estimated by performing oocyst counts.

Native E. maxima PKG = Native E. maxima PKG (Eimeria maxima, UniProt Q8MMZ5); experiment: PKG catalytic assay, native E. maxima PKG; type: biochemical
Description: E. maxima unsporulated oocysts were harvested from the ceca of chickens seven days after infection with sporulated oocysts and purified using standard methods (Schmatz et al, 1986, J. Protozoology 33, 109-114). Soluble extracts were prepared by vortexing 2×10^9 E. maxima unsporulated oocysts with an equal volume of buffer (10 mM HEPES pH 7.4, 1 mM sodium orthovanadate, 20% glycerol, 0.1 mg/ml Bacitracin and 0.5% Sigma protease inhibitor cocktail P8340), and an equal volume of […] glass beads for 20 minutes. The resulting homogenate was centrifuged (100,000×g, 1 hour) and the supernatant (S100) collected. Native E. maxima PKG activity in the S100 fraction was affinity purified using an 8-AET-cGMP-agarose matrix as described below. • (iv) Isolation and Characterization of Native PKG from P. falciparum
Kinase activity was detected using a peptide substrate and [γ-^33P]-ATP. An aliquot containing the respective enzyme preparations was combined with a reaction mixture (10 μl) whose composition is as follows: 25 mM HEPES pH 7.4, 10 mM MgCl2, 20 mM beta-glycerophosphate, 5 mM beta-mercaptoethanol, 10 μM cGMP, 1 mg/ml BSA, 400 μM Kemptide, 2 μM [γ-^33P]ATP (0.1 mCi/ml). […] In both cases filters were washed with 75 mM phosphoric acid, dried and ^33P-labelled phosphopeptide was detected by liquid scintillation counting.

C. parvum = experiment: In vitro tissue culture based assay with C. parvum; type: cell-based
P. berghei = experiment: Parasitemia in mice infected with P. berghei; type: in vivo; conditions: Balb C mice, individual mice 1-5
Description: Balb C mice were infected intra-peritoneally with 1×10^6 P. berghei parasites in red blood cells. Two hours later twice daily intra-peritoneal treatment began with L-167645 in 10% DMSO. In the experiments described within, five animals were dosed with 75 milligrams compound per kilogram body weight (mpk) and received two treatments for one day. Five additional mice were dosed at 50 mpk and received two treatments daily for five days. Five control mice were dosed with an equivalent volume of 10% DMSO twice daily for 5 days. Parasite burden was measured by counting infected red blood cells as a function of total red blood cells (% parasitemia) and was performed periodically; -parasitemia on day 8 post-infection are tabulated below.

[1] = system: Mixed-species field isolate of Eimeria DP-924 (E. maxima, E. acervulina, E. mitis); experiment: Chicken battery experiment, mixed-species Eimeria field isolate DP-924; type: in vivo; conditions: chickens, field isolate DP-924, 125 ppm in feed
Excerpt: (§1) Chicken battery experiments have also been conducted to evaluate L-167645 efficacy against mixed-species field isolates of Eimeria. The Eimeria cultures were obtained from grower farms in major broiler-producing states. Two of these field isolates, DP-924 and DP-968, contained E. maxima parasites. Each treatment group consisted of one pen of three one-week old White Leghorn chickens. Animals were placed on medicated feed at doses of L-167645 ranging from 25 to 150 ppm for the duration of the study. After 48 hrs, birds were infected by oral gavage with a total of 1×10^5 sporulated oocysts.

Native P. falciparum PKG = target: T1, Native P. falciparum PKG (Plasmodium falciparum, UniProt Q8I719); experiment: PKG catalytic assay, native P. falciparum PKG; type: biochemical
T1 construct: endogenous in cells; host or cells: P. falciparum NF54, schizont/trophozoite-enriched cultures in human erythrocytes; MonoQ then 8-AET-cGMP-agarose
Description: The NF54 strain of P. falciparum was grown in 5% human O+ red blood cells in RPMI 1640 media supplemented with 10% heat-inactivated human serum and 3% hypoxanthine using modifications of standard conditions (Trager and Jensen, 1976, Science 193, 673-675). Media was changed daily and parasites were diluted into fresh erythrocytes to a parasitemia of 0.2-0.5% every 3 to 4 days; final parasitemia ranged from 4 to 10%. Synchronized cultures (Lambros and Vanderberg, 1979, J. Parasitology 65, 418-420) enriched for schizont and trophozoite stages were prepared in a continuous Percoll gradient (Rivadeneira et al, 1983 J. Protozoology 30, 367-370). […]
A linear NaCl gradient was applied (0-500 mM in 3ml @ 100 ul/min) and 100 ul fractions were collected and assayed for PKG enzyme activity. […] The purification of P. falciparum PKG was monitored by Western blot analysis using a commercially available antipeptide antisera directed at a conserved PKG peptide (Calbiochem Cat. No. 539729). • (v) PKG Catalytic Assay
(§2) Kinase activity was detected using a peptide substrate and [γ-^33P]-ATP. […] In both cases filters were washed with 75 mM phosphoric acid, dried and ^33P-labelled phosphopeptide was detected by liquid scintillation counting.

[2] = target: Recombinant E. maxima PKG (Eimeria maxima, UniProt Q8MMZ5); experiment: PKG catalytic assay, recombinant E. maxima PKG; type: biochemical
Excerpt: T. gondii was selected as a host cell for recombinant expression of functional E. maxima PKG enzyme. An Eimeria maxima cDNA encoding the PKG open reading frame (ORF) was modified prior to subcloning for expression by appending either an N-terminal or C-terminal FLAG epitope for detection purposes via PCR amplification. DNA fragments encoding FLAG-epitope tagged PKGs were then placed in a T. gondii expression vector under the control of a Toxoplasma α-tubulin promoter (Soldati and Boothroyd, 1993, Science 260, 349-352). The vector encodes bacterial chloramphenicol acetyltransferase (CAT) as a selectable marker for transfection.
T. gondii tachyzoites of the RH strain were maintained by serial passage in primary human foreskin fibroblast cultures (HFF). Host cells were grown in Dulbecco's modified Eagle's medium with 10% heat-inactivated newborn bovine serum. […]
Recombinant FLAG-tagged E. maxima PKG was purified from T. gondii lysates by FLAG immuno-affinity chromatography. […] Protein was measured with a micro BCA reagent (Pierce), using a TCA/sodium deoxycholate step (Brown et al, 1989, Analytical Biochemistry 180, 136-139) to remove residual FLAG peptide prior to quantitation. […]
as §2

Plasmodium falciparum = experiment: PFAIV assay: tritiated hypoxanthine incorporation into parasitized red blood cells; type: cell-based; conditions: Erythrocyte, in vitro cell culture, 48 hours, [3H]-hypoxanthine incorporation, read-out: concentration of compound required to inhibit growth by 50% (IC50)
Description: The PFAIV assay is an in vitro assay designed to identify potential inhibitors of P. falciparum by measuring the incorporation of tritiated hypoxanthine into parasitized red blood cells.
The following method is an adaptation of the method described by Desjardins, R. E. et al, 1979. AAC Vol 16, p710-718:
1. Sixty microliters of a solution of RPMI 1640 media plus gentamycin (1:100 dilution) containing the desired concentration of test compound is added to the wells of a 96-well plate. (For titrations, 120 microliters is added to the top well and the compounds are serially diluted into 60 microliters of media.)
2. Fifty three microliters of parasitized red blood cells is added to the wells. The parasitemia of the culture is approximately 2-3% and the hematocrit is 5%. The red blood cells are diluted in RPMI 1640 media containing 20% human A+ serum and gentamycin.
3. Twelve microliters of RPMI1640 media containing 200 uCi [^3H] - hypoxanthine is added to each well.
4. The plates are incubated at 37° C. for 48 hours under […] (candle jar). After incubation, the plates are frozen overnight (for safety), then thawed and harvested using a manual 96-well harvester onto UNIFILTER GF/B plates.
5. The plates are counted on a Wallac instrument and % inhibition of parasite growth is determined as compared to control wells containing no compound.

[3] = system: Mixed-species field isolate of Eimeria DP-968 (E. maxima, E. acervulina, E. mitis, E. tenella); experiment: Chicken battery experiment, mixed-species Eimeria field isolate DP-968; type: in vivo; conditions: chickens, field isolate DP-968, 125 ppm in feed
Excerpt: as §1

CN1CCC(c2cc(-c3ccncc3)c(-c3ccc(F)cc3)[nH]2)CC1 [L-167645, 4-[2-(4-fluorophenyl)-5-(1-methylpiperidine4-yl)-1H-pyrrol-3-yl]pyridine]
reduction in oocyst counts (E. maxima): greater than 99% | IC50 (Native E. maxima PKG): 4.6 nM | inhibition of parasitic growth (C. parvum): effective in inhibiting parasitic growth | % parasitemia 8 days post-infection (P. berghei; 50 mpk intra-peritoneal, twice daily for five days, 50 mg/kg): 0% (2×) and 1% (2×) and 3% | % parasitemia 8 days post-infection (P. berghei; 75 mpk intra-peritoneal, two treatments for one day, 75 mg/kg): 3% and 4% and 1% (2×) and Dead | % Reduction in Oocyst Counts [1]: 97% | Relative % Weight Gain [1]: 108% | IC50 (Native P. falciparum PKG): 8.53 nM | IC50 [2]: 4.2 nM | IC50 (Plasmodium falciparum): 2.2 µg/mL (≈ 6.56 µM) | % Reduction in Oocyst Counts [3]: 86% | Relative % Weight Gain [3]: 94%
